Experimental data reported in paper PMC5771863 (Anesthesiology, 2018).
Read-outs that look alike come from different tables or passages of the source.

Legend:
Assay type in all cases: cell-based
[1] = biological target: T1, α1β3M286Cγ2L GABAA receptors (Homo sapiens, UniProt P14867+P28472, M311C); experiment: GABA EC5 enhancement by anesthetics, voltage clamp in Xenopus oocytes; conditions: β3M286C; […] ETO, 5 μM PRO, […] ALX
[2] = biological target: T2, α1β3F289Cγ2L GABAA receptors (Homo sapiens, UniProt P14867+P28472, F314C); conditions: β3F289C; […] ETO, 5 μM PRO, […] ALX
T2 sequence (P14867 28-456): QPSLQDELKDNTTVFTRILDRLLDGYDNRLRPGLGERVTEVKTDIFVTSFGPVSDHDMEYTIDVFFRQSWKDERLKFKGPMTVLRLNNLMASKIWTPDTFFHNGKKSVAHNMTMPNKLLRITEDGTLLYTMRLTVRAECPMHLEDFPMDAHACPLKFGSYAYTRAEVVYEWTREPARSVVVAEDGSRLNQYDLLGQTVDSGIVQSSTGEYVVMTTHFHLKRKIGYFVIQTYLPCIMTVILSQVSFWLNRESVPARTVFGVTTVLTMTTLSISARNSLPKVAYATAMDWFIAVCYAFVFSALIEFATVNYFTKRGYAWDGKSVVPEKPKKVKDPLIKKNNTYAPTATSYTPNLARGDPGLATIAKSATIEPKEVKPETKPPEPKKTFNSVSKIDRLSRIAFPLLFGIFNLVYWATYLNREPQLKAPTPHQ
T2 sequence (P28472 26-473 F314C): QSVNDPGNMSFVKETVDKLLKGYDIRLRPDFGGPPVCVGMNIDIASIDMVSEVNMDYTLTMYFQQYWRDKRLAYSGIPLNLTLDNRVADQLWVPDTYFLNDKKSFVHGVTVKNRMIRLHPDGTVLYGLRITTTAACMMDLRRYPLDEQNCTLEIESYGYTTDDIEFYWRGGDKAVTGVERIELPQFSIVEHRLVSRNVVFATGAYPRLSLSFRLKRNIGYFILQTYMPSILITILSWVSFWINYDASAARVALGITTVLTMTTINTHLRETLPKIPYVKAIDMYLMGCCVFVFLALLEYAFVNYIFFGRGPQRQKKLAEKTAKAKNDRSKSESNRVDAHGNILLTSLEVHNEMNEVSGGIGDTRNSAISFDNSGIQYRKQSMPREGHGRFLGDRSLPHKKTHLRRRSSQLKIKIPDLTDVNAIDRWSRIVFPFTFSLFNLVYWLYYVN
T2 sequence (P18507 40-475 partner): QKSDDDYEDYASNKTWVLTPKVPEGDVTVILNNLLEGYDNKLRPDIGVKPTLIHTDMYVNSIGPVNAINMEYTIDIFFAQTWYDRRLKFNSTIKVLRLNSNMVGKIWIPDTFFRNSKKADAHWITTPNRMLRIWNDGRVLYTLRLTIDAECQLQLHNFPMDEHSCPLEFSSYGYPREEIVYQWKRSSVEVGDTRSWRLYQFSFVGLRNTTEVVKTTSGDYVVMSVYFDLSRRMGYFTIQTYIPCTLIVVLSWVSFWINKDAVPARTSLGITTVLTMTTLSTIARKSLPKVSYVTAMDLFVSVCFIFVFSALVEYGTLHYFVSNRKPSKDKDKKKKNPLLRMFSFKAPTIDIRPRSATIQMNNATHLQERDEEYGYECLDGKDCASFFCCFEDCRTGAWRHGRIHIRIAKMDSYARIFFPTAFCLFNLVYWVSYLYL

[3] = biological target: α1β3F293Cγ2L GABAA receptors (Homo sapiens, UniProt P14867+P28472, F318C); conditions: β3F293C; […] ETO, 5 μM PRO, […] ALX
Chain of α1β3F293Cγ2L GABAA receptors (P14867 28-456): as the sequence (P14867 28-456) above
Chain of α1β3F293Cγ2L GABAA receptors (P28472 26-473 F318C): as the sequence (P28472 26-473 F314C) above, with C289F, F293C counted along it
Chain of α1β3F293Cγ2L GABAA receptors (P18507 40-475 partner): as the sequence (P18507 40-475 partner) above

[4] = biological target: α1β3L297Cγ2L GABAA receptors (Homo sapiens, UniProt P14867+P28472, L322C); experiment: GABA EC5 enhancement by anesthetics, voltage clamp in Xenopus oocytes; conditions: β3L297C; […] ETO, 5 μM PRO, […] ALX
Chain of α1β3L297Cγ2L GABAA receptors (P14867 28-456): as the sequence (P14867 28-456) above
Chain of α1β3L297Cγ2L GABAA receptors (P28472 26-473 L322C): as the sequence (P28472 26-473 F314C) above, with C289F, L297C counted along it
Chain of α1β3L297Cγ2L GABAA receptors (P18507 40-475 partner): as the sequence (P18507 40-475 partner) above

[5] = biological target: α1β3E298Cγ2L GABAA receptors (Homo sapiens, UniProt P14867+P28472, E323C); experiment: as above; conditions: β3E298C; […] ETO, 5 μM PRO, […] ALX
Chain of α1β3E298Cγ2L GABAA receptors (P14867 28-456): as the sequence (P14867 28-456) above
Chain of α1β3E298Cγ2L GABAA receptors (P28472 26-473 E323C): as the sequence (P28472 26-473 F314C) above, with C289F, E298C counted along it
Chain of α1β3E298Cγ2L GABAA receptors (P18507 40-475 partner): as the sequence (P18507 40-475 partner) above

[6] = biological target: α1β3T262Cγ2L GABAA receptors (Homo sapiens, UniProt P14867+P28472, T287C); experiment: Substituted cysteine modification-protection; conditions: pCMBS + maximal GABA, 10 μM ETO, 20 μM PRO
Chain of α1β3T262Cγ2L GABAA receptors (P14867 28-456): as the sequence (P14867 28-456) above
Chain of α1β3T262Cγ2L GABAA receptors (P28472 26-473 T287C): as the sequence (P28472 26-473 F314C) above, with T262C, C289F counted along it
Chain of α1β3T262Cγ2L GABAA receptors (P18507 40-475 partner): as the sequence (P18507 40-475 partner) above

[7] = biological target: T1, α1β3M286Cγ2L GABAA receptors; conditions: β3M286C; pCMBS + maximal GABA; 10 μM ETO, 20 μM PRO, 10 μM ALX
[8] = biological target: T2, α1β3F289Cγ2L GABAA receptors; conditions: pCMBS + maximal GABA
[9] = biological target: α1β3V290Cγ2L GABAA receptors (Homo sapiens, UniProt P14867+P28472, V315C); conditions: α1β3V290Cγ2L; pCMBS + maximal GABA; 10 μM ETO, 20 μM PRO, 10 μM ALX
Chain of α1β3V290Cγ2L GABAA receptors (P14867 28-456, stated change not applied): as the sequence (P14867 28-456) above
Chain of α1β3V290Cγ2L GABAA receptors (P28472 26-473 V315C): as the sequence (P28472 26-473 F314C) above, with C289F, V290C counted along it
Chain of α1β3V290Cγ2L GABAA receptors (P18507 40-475 partner): as the sequence (P18507 40-475 partner) above

[10] = 10 μM ETO, 20 μM PRO, 10 μM ALX

T1 sequence (P14867 28-456): as the sequence (P14867 28-456) above
T1 sequence (P28472 26-473 M311C): as the sequence (P28472 26-473 F314C) above, with M286C, C289F counted along it
T1 sequence (P18507 40-475 partner): as the sequence (P18507 40-475 partner) above

| Structure (SMILES) | EC5 enhancement compared to wild-type [1] | EC5 enhancement compared to wild-type [2] | EC5 enhancement compared to wild-type [3] | EC5 enhancement compared to wild-type [4] | EC5 enhancement compared to wild-type [5] | effect on apparent rate of pCMBS modification [6] | effect on apparent rate of pCMBS modification [7] | effect on apparent rate of pCMBS modification [8, 10] | effect on apparent rate of pCMBS modification [9] | effect on apparent rate of pCMBS modification ([8]; 50 μM ETO, 100 μM PRO, 50 μM ALX) |
| --- | --- | --- | --- | --- | --- | --- | --- | --- | --- | --- |
| CCOC(=O)c1cncn1[C@H](C)c1ccccc1 [ETO, R-Etomidate] | reduced | reduced | increased | increased | increased | unaffected | block modification | weakly blocked | strongly blocked | – |
| CC(C)c1cccc(C(C)C)c1O [PRO, 2,6-diisopropylphenol] | reduced | reduced | reduced | – | – | accelerated | block modification | unaffected | strongly blocked | neither 100 μM PRO nor 50 μM ALX inhibited modification |
